A short description of data set [1]: Treatment of patients with 4MU. To be noted: 4×300 mg 4MU. It is filed as in vivo.
The subject of the next data set is Choriod Plexus. The experiment in a line: Accumulation of labeled EV in the choroid plexus after tail vein injection of 4MU-treated EV. It is filed as in vivo. To be noted: 72 h after injection of 4MU-treated EV into tail veins of a mouse, n=4/condition; FIG. 3. Here is the method:
(A) Accumulation/absence of accumulation of labeled pEV (red) in the Choriod Plexus 72 h after injection of 4MU-treated EV into tail veins of a mouse (n=4/condition). (B) IHC of a hippocampal section and quantification of EVc pos. cells. Statistical significance by one-way ANOVA and Tukey's test, ***p<0.005.

In a further data set the test system is Huh7 liver cells. The experiment in a line: Uptake of HA, ADAM10/17, Hck and MMPs into EV from HAS-induced Huh7 liver cells (Western blot). It is filed as cell-based. The method, then:
(B): Hymecromone inhibits the uptake of HA into EV. […] Subsequently EV were purified from culture supernatant of Huh7 cells that were not treated for HAS induction (nil), from Huh7 cells that were treated for HAS induction (48 h; HAS-nd.) and from Huh7 cells that were treated for has induction and additionally incubated with Hymecromone (HAS-ind.+HyCr.). CD81 served as a loading control for pEV. Cell lysates from 293 T cells served as positive control for HA.
Subsequently EV were purified from culture supernatant of Huh7 cells that were not treated for HAS induction (nil), from Huh7 cells that were treated for HAS induction (48 h; HAS-ind.) and from Huh7 cells that were treated for HAS induction and additionally incubated with Hymecromone (HAS-nd.+HyCr.). Red arrows indicate the enzymatic active form of ADAM10 and ADAM17. CD81 served as a loading control for pEV. Cell lysates from 293 T cells served as positive control for HA.
In vitro a concentration of 300 μmol was sufficient to completely block the uploading of HA, Hck, and ADAM10 into vesicles. Whether these concentrations can be reached in circulation after oral uptake is not clear, as Hymecromone is efficiently metabolized in the […]. On the other hand PCpEV are generated by liver cells where Hymecromone is metabolized. […] Furthermore, there are likely inter-individual differences with respect to Hymecromone metabolization.
293Tcells were cultured in DMEM (Lonza), 10% (v/v) fetal bovine serum (FBS) with Penicillin-Strepto-mycin at 37° C., 5% CO2. For transient transfection, plasmids encoding the indicated proteins were transfected with Lipofectamine® LTX with Plus™ Reagent (Invitrogen) according to the manufacturer's instructions, or using the classical calcium phosphate procedure. Cells were used for experiments 24-72 h after transfection. Hymecromone was added at a final concentration of […] after transfection. For immunoblotting 20 μg of cellular protein lysate and 10 μg of EV lysate were loaded per lane. The latter corresponded to the production/secretion of 2-4 mio 293T cells within 48 h transfected and grown in one 10 cm dish.

The test system of a further data set is three isotypes of HAS. To be noted: cited from earlier work.
The conditions of data set [2]: cited from earlier work.

Take `Cc1cc(=O)oc2cc(O)ccc12` [Hymecromone, 4-methylumbelliferone]: the “clinical outcome, Long COVID” value in data set [1] (32 old patient) is reported as “fully recovered”. Also, in data set [1] (patient), the “clinical outcome, Alzheimer's disease (AD)-associated depression” value is listed as “improved significantly”. In addition, the “EV upload and CP targeting” value in the data set with Choriod Plexus was “blocks”. For the same compound, the “uptake of ADAM10 and 17 and Hck into EV” value in the data set with Huh7 liver cells (Huh7 cells treated for HAS induction (48 h) and incubated with Hymecromone, FIG. 2) is “inhibits”. Further, the “uptake of HA into EV” value with Huh7 liver cells (Huh7 cells treated for HAS induction (48 h) and incubated with Hymecromone, Western blot, FIG. 1B) is given as “inhibits”. The “concentration sufficient to completely block the uploading of HA, Hck, and ADAM10 into vesicles” value in the data set with Huh7 liver cells (in vitro) came to 300 µmol. The “incorporation of LMW-HA, ADAM10/17, Hck, and MMPs into extracellular vesicles” value with Huh7 liver cells (pharmacological inhibition of HAS activity) is “efficiently blocked”. In the data set with three isotypes of HAS, the “inhibition of the three isotypes of HAS” value was “efficiently inhibited”. In addition, the “serious side effects in clinical trials” value in data set [2] (at least 182 patients treated in clinical trials) is “no serious side effects”. The “fraction of unchanged Hymecromone reaching systemic circulation” value in data set [2] (efficient metabolism by the liver) was “low”.

(Values after patent US20250032444A1, “Prevention and treatment of depressive disorders and conditions promoted by protease containing plasma extracellular vesicles (PCpEV)” (Evexys Biotech Oy, priority 2021, published 2025).)
